Measured values as given in patent US11939319B2, “Pyridinyl and pyrazinyl-(asa)indolsulfonamides” (UCB Pharma GmbH, priority 2018, dated 2024).

Target: GPR17 (Homo sapiens, UniProt Q13304)
Assay: cAMP accumulation functional assay (HTRF) in CHO hGPR17 cells
Format: cell-based
Set-up: host or cells: Flp-In T-REx CHO cells, expression induced with doxycycline
Settings: Schild analysis against MDL29,951, 5 μM forskolin, activity range, read-out: cAMP assay pA2 (converted)
Experimental: Flp-In T-REx CHO cells stably expressing human GPR17 receptor (CHO hGPR17) from Evi Kostenis' lab (Bonn University, Germany) were cultured at 37° C. in a humidified atmosphere of 5% CO2. Cells were grown in DMEM with Nutrient Mixture F-12 supplemented with hygromycin B (500 μg/ml) and blasticidin (30 μg/ml). Expression from the Flp-In locus was induced by treatment with doxycycline (1 μg/ml) for 16-20 h prior assays.
GPR17 activation can also recruit Gi-type G-protein signaling, resulting in a decrease of intracellular cyclic adenosine monophosphate (cAMP). Intracellular cAMP changes can be measured using the HTRF cAMP dynamic assay kit from CisBio (Codolet, France). Using homogenous time-resolved fluorescence technology (HTRF), the assay is based on competition between native cAMP produced by cells and cAMP labelled with the dye d2. The tracer binding was determined by an anti-cAMP antibody labeled with cryptate.
CHO hGPR17 were detached with PBS containing EDTA and dispatched in black 384-well plates with 5,000 cells per well. Cells were first incubated for 30 minutes at room temperature in HBSS Hepes (pH 7.4) containing vehicle or varying concentrations of test GPR17 antagonist/inverse agonist compounds. Then, a dose response curve of MDL29,951 GPR17 agonist (typically from 10^−5M to 10^−10M) was added on vehicle and on each test GPR17 antagonist/inverse agonist compound concentration in a final volume of 20 μL HBSS Hepes buffer (pH 7.4) containing 1% DMSO, 5 μM forskolin and 0.1 mM IBMX. After 60 minutes incubation at room temperature, the reaction is terminated and the cells lysed by adding the d2 detection reagent and the cryptate reagent in 10 μL lysis buffer each according to manufacturer's instructions. After 60 minutes incubation, changes in cAMP concentrations are measured according to manufacturer's instructions using an Envision plate reader with laser excitation. All incubations were performed in duplicate. Data was analyzed using GraphPad Prism software using the 4-parameter logistic equation to measure MDL29,951 pEC50s in absence and presence of GPR17 antagonist/inverse agonist test compounds. Dose ratio (DR) were plotted against antagonist concentrations and Schild analysis provided estimated affinity pA2 of GPR17 antagonist/inverse agonist test compounds.
The activities of the Example compounds tested are depicted in the table below. The activity ranges A, B and C refer to pA2 values in the cAMP assay as follows: “A”: pA2 6.5≤x<7.5, “B”: pA2 7.5≤x<8.5, “C”: 8.5≤pA2.

Chain of GPR17 (Q13304 29-367 limits assumed): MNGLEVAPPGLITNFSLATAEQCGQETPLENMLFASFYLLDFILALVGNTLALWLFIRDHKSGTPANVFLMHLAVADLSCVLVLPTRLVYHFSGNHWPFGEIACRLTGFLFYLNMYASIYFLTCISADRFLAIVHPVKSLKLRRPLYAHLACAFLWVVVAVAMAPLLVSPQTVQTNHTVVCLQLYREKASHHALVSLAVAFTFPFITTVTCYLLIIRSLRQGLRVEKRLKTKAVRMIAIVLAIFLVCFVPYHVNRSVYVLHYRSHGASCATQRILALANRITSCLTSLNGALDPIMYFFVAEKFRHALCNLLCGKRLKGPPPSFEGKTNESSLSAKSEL

SMILES | Kb [nM]
COc1nc(Cl)ccc1NS(=O)(=O)c1c[nH]c2cc(C(F)F)ccc12 [Example I-27, N-(6-chloro-2-methoxypyridin-3-yl)-6-(difluoromethyl)-1H-indole-3-sulfonamide] | 31.6 to 316
COc1ncc(F)cc1NS(=O)(=O)c1c[nH]c2nc(Cl)ccc12 [Example I-49, 6-chloro-N-(5-fluoro-2-methoxypyridin-3-yl)-1H-pyrrolo[2,3-b]pyridine-3-sulfonamide] | 31.6 to 316
COc1nc(OCCF)c(F)cc1NS(=O)(=O)c1c[nH]c2nc(Cl)ccc12 [Example I-36, 6-chloro-N-[5-fluoro-6-(2-fluoroethoxy)-2-methoxypyridin-3-yl]-1H-pyrrolo[2,3-b]pyridine-3-sulfonamide] | ≤ 3.16
O=S(=O)(Nc1cnc(Cl)cc1Cl)c1c[nH]c2cc(Cl)ccc12 [Example I-26, 6-chloro-N-(4,6-dichloropyridin-3-yl)-1H-indole-3-sulfonamide] | 31.6 to 316
COc1nc(Cl)c(F)cc1NS(=O)(=O)c1c[nH]c2nc(OCc3ccccc3)ccc12 [Example I-72, N-(6-chloro-5-fluoro-2-methoxypyridin-3-yl)-6-phenylmethoxy-1H-pyrrolo[2,3-b]pyridine-3-sulfonamide] | 31.6 to 316
Cc1nc(F)c(NS(=O)(=O)c2c[nH]c3nc(C(F)F)ccc23)cc1F [Example I-57, 6-(difluoromethyl)-N-(2,5-difluoro-6-methylpyridin-3-yl)-1H-pyrrolo[2,3-b]pyridine-3-sulfonamide] | 3.16 to 31.6
O=S(=O)(Nc1cc(F)c(C2CC2)nc1F)c1c[nH]c2nc(Cl)ccc12 [Example I-47, 6-chloro-N-(6-cyclopropyl-2,5-difluoropyridin-3-yl)-1H-pyrrolo[2,3-b]pyridine-3-sulfonamide] | 3.16 to 31.6
COc1nc(OCCF)c(F)cc1NS(=O)(=O)c1c[nH]c2cc(Cl)ccc12 [Example I-12, 6-chloro-N-[5-fluoro-6-(2-fluoroethoxy)-2-methoxypyridin-3-yl]-1H-indole-3-sulfonamide] | ≤ 3.16
COc1ccc(NS(=O)(=O)c2c[nH]c3cc(Cl)ccc23)c(OC)n1 [Example I-61, 6-chloro-N-(2,6-dimethoxypyridin-3-yl)-1H-indole-3-sulfonamide] | 31.6 to 316
COc1nc(OCCF)c(F)cc1NS(=O)(=O)c1c[nH]c2nc(C(F)F)ccc12 [Example I-55, 6-(difluoromethyl)-N-[5-fluoro-6-(2-fluoroethoxy)-2-methoxypyridin-3-yl]-1H-pyrrolo[2,3-b]pyridine-3-sulfonamide] | 3.16 to 31.6
O=S(=O)(Nc1cc(F)c(OCC(F)F)nc1F)c1c[nH]c2nc(C(F)F)ccc12 [Example I-30, N-[6-(2,2-difluoroethoxy)-2,5-difluoro-3-pyridyl]-6-(difluoromethyl)-1H-pyrrolo[2,3-b]pyridine-3-sulfonamide] | 31.6 to 316
COc1nc(OC(F)F)ccc1NS(=O)(=O)c1c[nH]c2nc(Cl)ccc12 [Example I-37, 6-chloro-N-[6-(difluoromethoxy)-2-methoxy-3-pyridyl]-1H-pyrrolo[2,3-b]pyridine-3-sulfonamide] | 3.16 to 31.6
COc1nc(OCC(F)F)c(F)cc1NS(=O)(=O)c1c[nH]c2nc(Cl)c(Br)cc12 [Example I-71, 5-bromo-6-chloro-N-[6-(2,2-difluoroethoxy)-5-fluoro-2-methoxypyridin-3-yl]-1H-pyrrolo[2,3-b]pyridine-3-sulfonamide] | ≤ 3.16
COc1nc(Cl)c(F)cc1NS(=O)(=O)c1c[nH]c2nc(C(F)F)ccc12 [Example I-29, N-(6-chloro-5-fluoro-2-methoxypyridin-3-yl)-6-(difluoromethyl)-1H-pyrrolo[2,3-b]pyridine-3-sulfonamide] | 3.16 to 31.6
COc1nc(OCC(F)F)c(F)cc1NS(=O)(=O)c1c[nH]c2nc(Cl)ccc12 [Example I-46, 6-chloro-N-[6-(2,2-difluoroethoxy)-5-fluoro-2-methoxypyridin-3-yl]-1H-pyrrolo[2,3-b]pyridine-3-sulfonamide] | ≤ 3.16
O=S(=O)(Nc1cc(F)c(OCC(F)F)nc1F)c1c[nH]c2cc(C(F)F)ccc12 [Example I-52, N-[6-(2,2-difluoroethoxy)-2,5-difluoropyridin-3-yl]-6-(difluoromethyl)-1H-indole-3-sulfonamide] | 3.16 to 31.6

SMILES | Kb [nM]
COc1nc(OCC(F)F)c(F)cc1NS(=O)(=O)c1c[nH]c2cc(OC(F)F)ccc12 [Example I-51, N-[6-(2,2-difluoroethoxy)-5-fluoro-2-methoxypyridin-3-yl]-6-(difluoromethoxy)-1H-indole-3-sulfonamide] | ≤ 3.16
COc1nc(OCC(F)F)c(F)cc1NS(=O)(=O)c1c[nH]c2cc(C(F)F)ccc12 [Example I-62, N-[6-(2,2-difluoroethoxy)-5-fluoro-2-methoxypyridin-3-yl]-6-(difluoromethyl)-1H-indole-3-sulfonamide] | ≤ 3.16
COc1nc(OCC(F)F)c(F)cc1NS(=O)(=O)c1c[nH]c2nc(C(F)F)ccc12 [Example I-54, N-[6-(2,2-difluoroethoxy)-5-fluoro-2-methoxypyridin-3-yl]-6-(difluoromethyl)-1H-pyrrolo[2,3-b]pyridine-3-sulfonamide] | ≤ 3.16
COc1nc(Cl)cnc1NS(=O)(=O)c1c[nH]c2cc(Cl)ccc12 [Example I-11, 6-chloro-N-(5-chloro-3-methoxypyrazin-2-yl)-1H-indole-3-sulfonamide] | ≤ 3.16
COc1nc(OCC(F)F)ccc1NS(=O)(=O)c1c[nH]c2nc(Cl)ccc12 [Example I-45, 6-chloro-N-[6-(2,2-difluoroethoxy)-2-methoxypyridin-3-yl]-1H-pyrrolo[2,3-b]pyridine-3-sulfonamide] | 3.16 to 31.6
COc1nc(OC)c(NS(=O)(=O)c2c[nH]c3nc(C(F)F)ccc23)cc1F [Example I-56, 6-(difluoromethyl)-N-(5-fluoro-2,6-dimethoxypyridin-3-yl)-1H-pyrrolo[2,3-b]pyridine-3-sulfonamide] | 3.16 to 31.6
COc1nc(OCC(F)F)c(F)cc1NS(=O)(=O)c1c[nH]c2cc(C#N)ccc12 [Example I-65, 6-cyano-N-[6-(2,2-difluoroethoxy)-5-fluoro-2-methoxypyridin-3-yl]-1H-indole-3-sulfonamide] | 3.16 to 31.6
O=S(=O)(Nc1cc(F)c(C2CC2)nc1F)c1c[nH]c2cc(Cl)ccc12 [Example I-41, 6-chloro-N-(6-cyclopropyl-2,5-difluoropyridin-3-yl)-1H-indole-3-sulfonamide] | 3.16 to 31.6
COc1nc(OCCOC(F)F)c(F)cc1NS(=O)(=O)c1c[nH]c2cc(Cl)ccc12 [Example I-43, 6-chloro-N-[6-[2-(difluoromethoxy)ethoxy]-5-fluoro-2-methoxypyridin-3-yl]-1H-indole-3-sulfonamide] | ≤ 3.16
COc1ccc2c(S(=O)(=O)Nc3cc(F)c(OCC(F)F)nc3OC)c[nH]c2c1 [Example I-64, N-[6-(2,2-difluoroethoxy)-5-fluoro-2-methoxypyridin-3-yl]-6-methoxy-1H-indole-3-sulfonamide] | ≤ 3.16
COc1ccc2c(S(=O)(=O)Nc3cc(F)c(OC(F)F)nc3OC)c[nH]c2c1 [Example I-63, N-[6-(difluoromethoxy)-5-fluoro-2-methoxypyridin-3-yl]-6-methoxy-1H-indole-3-sulfonamide] | ≤ 3.16
COc1nc(OC(F)F)c(F)cc1NS(=O)(=O)c1c[nH]c2cc(C)ccc12 [Example I-60, N-[6-(difluoromethoxy)-5-fluoro-2-methoxypyridin-3-yl]-6-methyl-1H-indole-3-sulfonamide] | ≤ 3.16
COc1nc(OCCOC(F)F)c(F)cc1NS(=O)(=O)c1c[nH]c2nc(Cl)ccc12 [Example I-48, 6-chloro-N-[6-[2-(difluoromethoxy)ethoxy]-5-fluoro-2-methoxypyridin-3-yl]-1H-pyrrolo[2,3-b]pyridine-3-sulfonamide] | ≤ 3.16
COc1nc(OCC(F)F)c(F)cc1NS(=O)(=O)c1c[nH]c2cc(Cl)ccc12 [Example I-42, 6-chloro-N-[6-(2,2-difluoroethoxy)-5-fluoro-2-methoxypyridin-3-yl]-1H-indole-3-sulfonamide] | ≤ 3.16
COc1nc(OCC(F)F)ccc1NS(=O)(=O)c1c[nH]c2cc(Cl)ccc12 [Example I-38, 6-chloro-N-[6-(2,2-difluoroethoxy)-2-methoxypyridin-3-yl]-1H-indole-3-sulfonamide] | ≤ 3.16
